Experimental findings from PubChem BioAssay AID230 (DTP/NCI, 2004) are described below.

Where “and” joins values, the source holds several entries; their conditions need not be identical. Identical values can stand only once. Inconclusive results and toxic doses are left out.

The subject of this assay is C3H/He mice, Gardner lymphosarcoma 6C3HED ip, survival T/C. The assay can be described thus: NCI In Vivo Anticancer Drug Screen. Data for tumor model Lymphosarcoma Gardner 6C3HED (intraperitoneal) in C3H/He mice. The following applies: higher = longer survival. As to the method:
The antitumor activity of compounds was measured in mice bearing transplantable tumors. Survival or tumor size were measured and the results are expressed as the measurement made in the treated group (T) divided by the measurement made in the vehicle treated control group (C). The tumor model used in this assay is Lymphosarcoma Gardner 6C3HED (intraperitoneal) in C3H/He mice

Where [1] appears, read: endpoint: survival time, mean or median, dose: 5.0 mg/kg/injection, schedule: Q01DX010 (ip), vehicle: saline.
The mark [2] stands for this setting: endpoint: survival time, mean or median, dose: 0.5 mg/kg/injection, schedule: Q01DX010 (ip), vehicle: saline.
Setting [3] is: endpoint: survival time, mean or median, dose: 2.0 mg/kg/injection, schedule: Q01DX010 (ip), vehicle: saline.
Where [4] appears, read: endpoint: survival time, mean or median, dose: 4.0 mg/kg/injection, schedule: Q01DX010 (ip), vehicle: saline.
Where [5] appears, read: endpoint: survival time, mean or median, dose: 10.0 mg/kg/injection, schedule: Q01DX010 (ip), vehicle: saline.
Where [6] appears, read: endpoint: survival time, mean or median, dose: 20.0 mg/kg/injection, schedule: Q01DX010 (ip), vehicle: saline.
[7] abbreviates: endpoint: survival time, mean or median, dose: 40.0 mg/kg/injection, schedule: Q01DX010 (ip), vehicle: saline.
Where [8] appears, read: endpoint: survival time, mean or median, dose: 3.13 mg/kg/injection, schedule: Q01DX010 (ip), vehicle: saline.
Where [9] appears, read: endpoint: survival time, mean or median, dose: 6.25 mg/kg/injection, schedule: Q01DX010 (ip), vehicle: saline.
[10] abbreviates: endpoint: survival time, mean or median, dose: 25.0 mg/kg/injection, schedule: Q01DX010 (ip), vehicle: saline.
The mark [11] stands for this setting: endpoint: survival time, mean or median, dose: 50.0 mg/kg/injection, schedule: Q01DX010 (ip), vehicle: saline.
Where [12] appears, read: endpoint: survival time, mean or median, dose: 12.5 mg/kg/injection, schedule: Q01DX010 (ip), vehicle: saline.

As for `NC(Cc1ccc(N(CCCl)CCCl)cc1)C(=O)O` (stereo unspecified), the T/C (endpoint: survival time, mean or median, dose: 1.25 mg/kg/injection, schedule: Q01DX010 (ip), vehicle: saline) was 107 % of control; the T/C under setting [1] was 89 % of control and 119 % of control.

As for `Nc1nc(F)nc2c1ncn2C1OC(CO)C(O)C1O` (stereo unspecified), the T/C is, setting by setting: under setting [2], 87 % of control; (endpoint: survival time, mean or median, dose: 1.0 mg/kg/injection, schedule: Q01DX010 (ip), vehicle: saline) 87 % of control; (endpoint: survival time, mean or median, dose: 250.0 micrograms/kg/injection, schedule: Q01DX010 (ip), vehicle: saline) 86 % of control.

For the compound `C=CC(CN1CC1)OC(C)=O` (stereo unspecified), the T/C by setting is: under setting [3], 107 % of control; under setting [4], 123 % of control.

On to `S=P(N1CC1)(N1CC1)N1CC1`, for which the T/C is, setting by setting: (endpoint: survival time, mean or median, dose: 0.75 mg/kg/injection, schedule: Q01DX010 (ip), vehicle: saline) 100 % of control; (endpoint: survival time, mean or median, dose: 1.5 mg/kg/injection, schedule: Q01DX010 (ip), vehicle: saline) 104 % of control and 105 % of control; (endpoint: survival time, mean or median, dose: 3.0 mg/kg/injection, schedule: Q01DX010 (ip), vehicle: saline) 100 % of control and 110 % of control; (endpoint: survival time, mean or median, dose: 6.0 mg/kg/injection, schedule: Q01DX010 (ip), vehicle: saline) 104 % of control and 115 % of control.

Take `COc1cc2c(c(OC)c1OC)-c1ccc(OC)c(=O)cc1[C@@H](NC(C)=O)CC2`: the T/C is 100 % of control (endpoint: survival time, mean or median, dose: 0.01 mg/kg/injection, schedule: Q01DX010 (ip), vehicle: saline); 103 % of control (endpoint: survival time, mean or median, dose: 0.02 mg/kg/injection, schedule: Q01DX010 (ip), vehicle: saline); 100 % of control (endpoint: survival time, mean or median, dose: 0.04 mg/kg/injection, schedule: Q01DX010 (ip), vehicle: saline); 121 % of control (endpoint: survival time, mean or median, dose: 0.08 mg/kg/injection, schedule: Q01DX010 (ip), vehicle: saline).

With `Nc1ncnc2c1ncn2C1OC(COP(=O)(O)O)C(O)C1O` (stereo unspecified), the T/C (endpoint: median survival time, dose: 18.3 mg/kg/injection, schedule: Q01DX003 (ip), vehicle: saline) is 100 % of control; the T/C (endpoint: median survival time, dose: 18.3 mg/kg/injection, schedule: Q12HX006 (ip), vehicle: saline) is 109 % of control; the T/C (endpoint: median survival time, dose: 36.6 mg/kg/injection, schedule: Q01DX003 (ip), vehicle: saline) is 95 % of control; the T/C (endpoint: median survival time, dose: 36.6 mg/kg/injection, schedule: Q12HX006 (ip), vehicle: saline) was 111 % of control; the T/C (endpoint: median survival time, dose: 73.2 mg/kg/injection, schedule: Q01DX003 (ip), vehicle: saline) is 90 % of control; the T/C (endpoint: median survival time, dose: 73.3 mg/kg/injection, schedule: Q12HX006 (ip), vehicle: saline) is 104 % of control.

Consider `CC(C)CC(NC(=O)C(O)C(N)Cc1ccccc1)C(=O)O` (stereo unspecified), for which the T/C reads like this: (endpoint: median survival time, dose: 2.5 mg/kg/injection, schedule: Q01DX005 (oral), vehicle: saline) 94 % of control; (endpoint: median survival time, dose: 5.0 mg/kg/injection, schedule: Q01DX005 (oral), vehicle: saline) 95 % of control; (endpoint: median survival time, dose: 10.0 mg/kg/injection, schedule: Q01DX005 (oral), vehicle: saline) 95 % of control.

On to `N=C(N)SCc1c2ccccc2c(CSC(=N)N)c2ccccc12`, for which the T/C by setting is: (endpoint: survival time, mean or median, dose: 2.5 mg/kg/injection, schedule: Q01DX010 (ip), vehicle: saline) 300 % of control; under setting [1], 300 % of control; under setting [5], 300 % of control; under setting [6], 300 % of control; under setting [7], 192 % of control.

On to `Nc1nc2n[nH]nc2c(=O)[nH]1`, for which the T/C is 109 % of control (endpoint: survival time, mean or median, dose: 25.0 mg/kg/injection, schedule: Q01DX010 (ip), vehicle: alkali diluted with saline); 115 % of control and 118 % of control (endpoint: survival time, mean or median, dose: 50.0 mg/kg/injection, schedule: Q01DX010 (ip), vehicle: alkali diluted with saline); 120 % of control (endpoint: survival time, mean or median, dose: 100.0 mg/kg/injection, schedule: Q01DX010 (ip), vehicle: alkali diluted with saline); 100 % of control (endpoint: survival time, mean or median, dose: 200.0 mg/kg/injection, schedule: Q01DX010 (ip), vehicle: alkali diluted with saline).

Turning to `N[C@@H](Cc1ccc(N(CCCl)CCCl)cc1)C(=O)O`, the T/C was 106 % of control under setting [2], 150 % of control under setting [3] and 93 % of control under setting [4].

`CCN(CC)CCCC(C)Nc1c2ccc(Cl)cc2nc2ccc(OC)cc12` (stereo unspecified): the T/C is 90 % of control under setting [8], 90 % of control under setting [9], 100 % of control under setting [10] and 112 % of control under setting [11].

Turning to `CC(=O)O[C@]1(C(C)=O)CC[C@H]2[C@@H]3C[C@H](C)C4=CC(=O)C=C[C@]4(C)[C@@]3(F)[C@@H](O)C[C@@]21C`, the T/C is 100 % of control (endpoint: survival time, mean or median, dose: 6.25 mg/kg/injection, schedule: Q01DX010 (sc), vehicle: steriod suspending solution); 96 % of control (endpoint: survival time, mean or median, dose: 12.5 mg/kg/injection, schedule: Q01DX010 (sc), vehicle: steriod suspending solution); 92 % of control (endpoint: survival time, mean or median, dose: 25.0 mg/kg/injection, schedule: Q01DX010 (sc), vehicle: steriod suspending solution); 92 % of control (endpoint: survival time, mean or median, dose: 50.0 mg/kg/injection, schedule: Q01DX010 (sc), vehicle: steriod suspending solution).

For the compound `CS(=O)(=O)OCCCCOS(C)(=O)=O`, the T/C was 95 % of control (endpoint: survival time, mean or median, dose: 1.56 mg/kg/injection, schedule: Q01DX010 (ip), vehicle: saline); 90 % of control under setting [8]; 95 % of control under setting [9]; 104 % of control under setting [12].

In the case of `COc1cc(-c2ccc(Nc3ccccc3C(=O)O)c(OC)c2)ccc1N`, the T/C runs as follows: under setting [1], 110 % of control; under setting [5], 96 % of control and 107 % of control; under setting [6], 92 % of control; under setting [7], 89 % of control and 96 % of control; (endpoint: survival time, mean or median, dose: 80.0 mg/kg/injection, schedule: Q01DX010 (ip), vehicle: saline) 89 % of control.

As to `COc1ccc(/C=N/NC(N)=S)cc1`, the T/C by setting is: (endpoint: survival time, mean or median, dose: 32.0 mg/kg/injection, schedule: Q01DX010 (ip), vehicle: saline) 96 % of control; (endpoint: survival time, mean or median, dose: 64.0 mg/kg/injection, schedule: Q01DX010 (ip), vehicle: saline) 92 % of control; (endpoint: survival time, mean or median, dose: 128.0 mg/kg/injection, schedule: Q01DX010 (ip), vehicle: saline) 100 % of control; (endpoint: survival time, mean or median, dose: 256.0 mg/kg/injection, schedule: Q01DX010 (ip), vehicle: saline) 96 % of control.

Consider `OCCOCCN1CCN(CCCN2c3ccccc3Sc3ccc(C(F)(F)F)cc32)CC1`, for which the T/C under setting [1] was 90 % of control and the T/C under setting [6] is 90 % of control.

Consider `O=P1(N(CCCl)CCCl)NCCCO1` (stereo unspecified), for which the T/C is, setting by setting: (endpoint: median survival time, dose: 12.5 mg/kg/injection, schedule: Q01DX007 (ip), vehicle: saline) 116 % of control; (endpoint: median survival time, dose: 20.0 mg/kg/injection, schedule: Q01DX003 (ip), vehicle: saline) 163 % of control; (endpoint: median survival time, dose: 25.0 mg/kg/injection, schedule: Q01DX007 (ip), vehicle: saline) 116 % of control; (endpoint: median survival time, dose: 40.0 mg/kg/injection, schedule: Q01DX003 (ip), vehicle: saline) 209 % of control and 724 % of control; (endpoint: median survival time, dose: 80.0 mg/kg/injection, schedule: Q01DX003 (ip), vehicle: saline) 190 % of control and 722 % of control; under setting [9], 100 % of control. Besides, the T/C was 115 % of control under setting [12] and 115 % of control under setting [11].

Regarding `COc1cc(-c2ccc(Nc3ccccc3C(=O)O)c(OC)c2)ccc1Nc1ccccc1C(=O)O`, the T/C is, setting by setting: under setting [12], 117 % of control; under setting [10], 107 % of control and 117 % of control; under setting [11], 117 % of control and 118 % of control; (endpoint: survival time, mean or median, dose: 100.0 mg/kg/injection, schedule: Q01DX010 (ip), vehicle: saline) 96 % of control.
